11 compounds from PubChem BioAssay (NCI) can be followed below.

Test systems include DLD-1 colon; SNB-78 CNS; DMS 114 small cell lung; HOP-18 NSCLC; M19-MEL melanoma; DMS 273 small cell lung; P388 leukemia; P388/ADR leukemia; SN12K1 renal; 786-0 renal; T-47D breast.
Common to all, as to test: NCI tumour cell line growth inhibition, 48 h

The structures appear in SMILES notation.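 Step 1: Grow cells in 96-well plates. Step 2: Expose to compound for 48 hours at 5 concentrations. Step 3: Interpolate endpoints linearly; if unreached, use highest concentration. The concentration for 50% growth inhibition is given as GI50. Definition used: TGI = concentration required for complete inhibition of growth.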

For the compound `C=C1CC[C@@H](Br)C(C)(C)[C@]12CCC(C)(O)C(Cl)C2` (some centres not stated), the TGI is 32.6 µM in the experiment with DLD-1 colon; more than 100 µM in the experiment on SNB-78 CNS; 31.8 µM in the experiment on DMS 114 small cell lung; 59.1 µM with HOP-18 NSCLC; 34.3 µM in the experiment on M19-MEL melanoma; 36.2 µM in the experiment with DMS 273 small cell lung.

On to `O=C(CCl)NC(Cc1ccc(F)cc1)C(=O)O` (configuration not stated), for which the TGI in the experiment on DLD-1 colon, in the experiment on SNB-78 CNS, in the experiment with P388 leukemia, with P388/ADR leukemia, in the experiment with DMS 114 small cell lung and with HOP-18 NSCLC was more than 100 µM in each case. In addition, the TGI in the experiment with M19-MEL melanoma, in the experiment on SN12K1 renal and with DMS 273 small cell lung was more than 100 µM each time.

`CCOC(=O)[C@H]1Nc2c(cccc2[N+](=O)[O-])[C@H]2OCC[C@@H]12`: the TGI in the experiment on DLD-1 colon, in the experiment on SNB-78 CNS, with DMS 114 small cell lung, in the experiment on HOP-18 NSCLC, with M19-MEL melanoma and with DMS 273 small cell lung was more than 100 µM in each case.

`CCCCCCCCCCCCCCCC(=O)OCC1CCCN2CCCCC12` (configuration not stated) had a TGI in the experiment on 786-0 renal of more than 100 µM.

Regarding `O=C(O)NCc1ccccc1` (tested in a mixture with another compound), the TGI is more than 100 µM with 786-0 renal and more than 81.6 µM in the experiment with T-47D breast.

As for `CC1CCC(O)(C(C)(C(=O)O)c2ccccc2)CC1` (configuration not stated), the TGI with 786-0 renal and with T-47D breast was more than 100 µM throughout.

Turning to `CC[C@H](Nc1nc(N)nc(C)c1C#N)c1nc2cccc(NCc3ccc(C(=O)NO)cc3)c2c(=O)n1-c1ccccc1`, in the experiment with T-47D breast, the GI50 was 1.18 µM and the TGI was 4.66 µM.

Regarding `NC(=S)Nc1cc(Cl)ccc1Cl`, the TGI with DLD-1 colon, with SNB-78 CNS, in the experiment with DMS 114 small cell lung, with HOP-18 NSCLC, in the experiment with M19-MEL melanoma and in the experiment on DMS 273 small cell lung was more than 100 µM each time.

Compound `COc1cc(N/N=C/C#N)cc(OC)c1OC` registered a TGI with T-47D breast of more than 10 µM.

In the experiment on T-47D breast, `C/C(=N\Oc1cc(Cl)ncn1)c1ccccn1` displayed a TGI of more than 100 µM.

Consider `Nc1nncc2c1ccn2C1OC(CO)C(O)C1O` (configuration not stated), for which the TGI with DLD-1 colon, in the experiment on SNB-78 CNS, in the experiment with DMS 114 small cell lung, in the experiment with HOP-18 NSCLC, in the experiment on M19-MEL melanoma and in the experiment on DMS 273 small cell lung was more than 100 µM throughout.
